The source made the active and inactive calls. No cut-off for these calls is given here.
Tests used:
RAW264.7 [1] = assay: Antiinflammatory activity against mouse RAW264.7 cells assessed as inhibition of LPS-induced IL-6 production at 10 uM pretreated with compound for 0.5 hrs followed by incubation with LPS for 24 hrs by ELISA; format: functional; conditions: time 24.5 hrs
[2] = Cytotoxicity against mouse RAW264.7 cells assessed as cell viability at 10 uM incubated for 24 hrs by MTT assay relative to control; format: toxicity, cell-based; conditions: read-out: Activity
RAW264.7 [3] = assay: Antiinflammatory activity against mouse RAW264.7 cells assessed as inhibition of LPS-induced IL-6 production pretreated with compound for 0.5 hrs followed by incubation with LPS for 24 hrs by ELISA; format: functional, cell-based
Mus musculus [4] = assay: Antiinflammatory activity against LPS-induced acute lung injury C57BL/6J mouse model assessed as decrease in total protein concentration in BALF at 20 mg/kg, ig administered every 12 hrs for 3 times and 30 mins later injected with LPS and measured after 5 hrs; format: functional, organism-based; conditions: time 41.5 hrs
Mus musculus [5] = assay: (§1) Antiinflammatory activity against LPS-induced acute lung injury C57BL/6J mouse model assessed as decrease in neutrophil number in BALF at 20 mg/kg, ig administered every 12 hrs for 3 times and 30 mins later injected with LPS and measured after 5 hrs by Wrigth-Giemsa staining; format: functional, organism-based; conditions: time 41.5 hrs
Mus musculus [6] = assay: Antiinflammatory activity against LPS-induced acute lung injury C57BL/6J mouse model assessed as decrease in LPS-induced IL-6 production in BALF at 20 mg/kg, ig administered every 12 hrs for 3 times and 30 mins later injected with LPS and measured after 5 hrs by ELISA; format: functional, organism-based; conditions: time 41.5 hrs
Mus musculus [7] = assay: Antiinflammatory activity against LPS-induced acute lung injury C57BL/6J mouse model assessed as decrease in ratio of lung wet to dry weight at 20 mg/kg, ig administered every 12 hrs for 3 times and 30 mins later injected with LPS and measured after 5 hrs; format: functional, organism-based; conditions: time 41.5 hrs
Mus musculus [8] = assay: Antiinflammatory activity against LPS-induced acute lung injury C57BL/6J mouse model assessed as decrease in disruption of lung tissue structure and alveolar wall thickening at 20 mg/kg, ig administered every 12 hrs for 3 times and 30 mins later injected with LPS and measured after 5 hrs; format: functional, organism-based; conditions: time 41.5 hrs
Mus musculus [9] = assay: Antiinflammatory activity against LPS-induced acute lung injury C57BL/6J mouse model assessed as decrease in LPS-induced TNF-alpha production in BALF at 20 mg/kg, ig administered every 12 hrs for 3 times and 30 mins later injected with LPS and measured after 5 hrs by ELISA; format: functional, organism-based; conditions: time 41.5 hrs
Mus musculus [10] = assay: Antiinflammatory activity against LPS-induced acute lung injury C57BL/6J mouse model assessed as decrease in LPS-induced IL-6 production in serum at 20 mg/kg, ig administered every 12 hrs for 3 times and 30 mins later injected with LPS and measured after 5 hrs by ELISA; format: functional, organism-based; conditions: time 41.5 hrs
Mus musculus [11] = assay: Antiinflammatory activity against LPS-induced acute lung injury C57BL/6J mouse model assessed as decrease in LPS-induced TNF-alpha production in serum at 20 mg/kg, ig administered every 12 hrs for 3 times and 30 mins later injected with LPS and measured after 5 hrs by ELISA; format: functional, organism-based; conditions: time 41.5 hrs
Mus musculus [12] = assay: as §1, with “LPS-induced F4/80 expression” for “neutrophil number”, “lungs” for “BALF”, “immunohistochemical” for “Wrigth-Giemsa”, “staining based analysis” for “staining”; format: functional, organism-based; conditions: time 41.5 hrs
Mus musculus [13] = assay: Antiinflammatory activity against LPS-induced hyperemia C57BL/6J mouse model assessed as decrease in LPS-induced death rate at 20 mg/kg, po administered 1 hr prior to LPS stimulation and measured for 1 week; format: functional, organism-based; conditions: time 1.0 weeks
Mus musculus [14] = assay: Antiinflammatory activity against LPS-induced hyperemia C57BL/6J mouse model assessed as decrease in LPS-induced weight loss at 20 mg/kg, po administered 1 hr prior to LPS stimulation and measured for 1 week; format: functional, organism-based; conditions: time 1.0 weeks
Mus musculus [15] = assay: Antiinflammatory activity against LPS-induced hyperemia C57BL/6J mouse model assessed as decrease in LPS-induced morphological changes in spleen at 20 mg/kg, po administered 1 hr prior to LPS stimulation by Hematoxylin-Eosin staining based analysis; format: functional, organism-based
RAW264.7 [16] = assay: Antiinflammatory activity against mouse RAW264.7 cells assessed as inhibition of LPS-induced TNF-alpha production pretreated with compound for 0.5 hrs followed by incubation with LPS for 24 hrs by ELISA; format: functional, cell-based

SMILES | inhibition at 10 µM (RAW264.7 [1]) [%] | viability at 24 h, 10 µM [2] [%] | other results
O=C(CCc1ccccc1)NC(=O)c1cccs1 |  |  | inhibition (RAW264.7 [1]): Active
CC(C)Cc1ccc(C(C)C(=O)NC(=O)/C=C/c2ccccc2)cc1 (configuration not stated) | 90.1 | 94.4 | 
CC(C)Cc1ccc(C(C)C(=O)O)cc1 (configuration not stated) [IBUPROFEN] | 61 | 132 | 
O=C(/C=C/c1ccccc1)NC(=O)c1cccs1 | 94.8 | 110 | IC50 (RAW264.7 [3]): 1590 nM; inhibition (RAW264.7 [3]; time 24.5 hrs): Dose-Dependent Effect; Activity (Mus musculus [4]): Active; Activity (Mus musculus [5]): Active; Activity (Mus musculus [6]): Active; Activity (Mus musculus [7]): Active; Activity (Mus musculus [8]): Active; Activity (Mus musculus [9]): Active; Activity (Mus musculus [10]): Active; Activity (Mus musculus [11]): Active; Activity (Mus musculus [12]): Active; Activity (Mus musculus [13]): Active; Activity (Mus musculus [14]): Active; Activity (Mus musculus [15]): Active; IC50 (RAW264.7 [16]): 15.3 µM; inhibition (RAW264.7 [16]; time 24.5 hrs): Dose-Dependent Effect
COc1ccc2cc(C(C)C(=O)NC(=O)C(C)c3ccc(CC(C)C)cc3)ccc2c1 (configuration not stated) | 55.7 | 117 | 
O=C(/C=C/c1ccccc1)NC(=O)c1ccco1 | 88.6 | 97.3 | 
O=C(CCc1ccccc1)NCc1cccs1 |  |  | inhibition (RAW264.7 [1]): Active
O=C(NC(=O)c1cc2ccccc2[nH]1)c1ccccc1 | 77.2 | 90.5 | 
O=C(/C=C/c1ccccc1)NC(=O)C1CCNC1 (configuration not stated) | 74 | 130 | 
O=C(/C=C/c1ccccc1)NC(=O)c1ccccc1 | 90.7 | 72.8 | 
O=C(NC(=O)c1ccc2ccccc2n1)c1ccccc1 | 74 | 88.2 | 
COc1ccc2cc(C(C)C(=O)NC(=O)c3ccccc3)ccc2c1 (configuration not stated) | 71.2 | 89.7 | 
O=C(NC(=O)C1CCNC1)c1ccccc1 (configuration not stated) | 74 | 115 | 
O=C(/C=C/c1ccccc1)NC(=O)/C=C/c1ccccc1 | 82.5 | 20.2 | 
O=C(NC(=O)c1ccco1)c1ccccc1 | 70.2 | 106 | 
O=C(/C=C/c1ccccc1)NCc1cccs1 |  |  | inhibition (RAW264.7 [1]): Active
O=C(NC(=O)c1cccs1)c1ccccc1 | 62.3 | 99.3 | 
COc1cc(/C=C/C(=O)CC(=O)/C=C/c2ccc(O)c(OC)c2)ccc1O [CURCUMIN] | 87 | 120 | 
CC(C)Cc1ccc(C(C)C(=O)NC(=O)c2ccccc2)cc1 (configuration not stated) | 71.1 | 91 | 
CC(C)(C)OC(=O)N1CCC(C(=O)NC(=O)/C=C/c2ccccc2)C1 (configuration not stated) | 77.5 | 135 | 
c1ccc(CCCNCc2cccs2)cc1 |  |  | inhibition (RAW264.7 [1]): Active
O=C(/C=C/c1ccccc1)NC(=O)c1ccc2ccccc2n1 | 83.3 | 93.2 | 
CC(C)(C)OC(=O)N1CCC(C(=O)NC(=O)c2ccccc2)C1 (configuration not stated) | 60.6 | 143 | 
O=C(/C=C/c1ccccc1)NC(=O)c1cc2ccccc2[nH]1 | 32 | 32.4 | 
O=C(NCCCc1ccccc1)c1cccs1 |  |  | inhibition (RAW264.7 [1]): Active
O=C(NC(=O)c1cccnc1)c1ccccc1 | 62 | 103 | 
COc1ccc2cc(C(C)C(=O)NC(=O)/C=C/c3ccccc3)ccc2c1 (configuration not stated) | 79.1 | 78.5 | 
COc1ccc2cc([C@H](C)C(=O)O)ccc2c1 [NAPROXEN] | 52.2 | 112 | 
C[C@@H]1C[C@H]2[C@@H]3CCC4=CC(=O)C=C[C@]4(C)[C@@]3(F)[C@@H](O)C[C@]2(C)[C@@]1(O)C(=O)CO |  |  | Activity (Mus musculus [7]): Active; Activity (Mus musculus [8]): Active; Activity (Mus musculus [12]): Active
O=C(NC(=O)c1ccccc1)c1ccccc1 | 66.7 | 109 | 

Reference: ChEMBL document CHEMBL5325447, “Synthesis and SAR study of novel diimide skeleton compounds with the anti-inflammatory activities in vitro and in vivo” (Bioorg Med Chem, 2023)
